Assay results published in ChEMBL document CHEMBL5247631, “Ferroptosis-related small-molecule compounds in cancer therapy: Strategies and applications” (Eur J Med Chem, 2022).
Blank lines part the entries; values can stand above or below the molecule they belong to.

How the values were obtained:
[1] = Cytotoxicity against human BJeLR cells overexpress oncogenic RAS assessed as induction of cell death; assay type: functional, cell-based
DLD-1 = assay: Antiproliferative activity against human DLD-1 cells assessed as reduction in cell viability incubated for 48 hrs by MTT assay; assay type: functional, cell-based; conditions: DLD-1, 48 h
HCT-116 = assay: Antiproliferative activity against human HCT-116 cells assessed as reduction in cell viability incubated for 48 hrs by MTT assay; assay type: functional, cell-based; conditions: HCT-116, 48 h
[2] = Induction of ferroptosis in human BJeLR cells assessed as inhibition of (cystine-glutamate antiporter) system Xc- mediated cystine transport; assay type: functional, cell-based; conditions: bjelr cell
[3] = Anticancer activity against human OCI-Ly8 cells assessed as reduction in cell viability incubated for 24 hrs by CellTiter-Glo luminescent assay; assay type: functional, cell-based; conditions: OCI-Ly8, 24 h
SU-DHL-5 = assay: Anticancer activity against human SU-DHL-5 cells assessed as reduction in cell viability incubated for 24 hrs by CellTiter-Glo luminescent assay; assay type: functional, cell-based; conditions: SU-DHL-5, 24 h
SU-DHL-6 = assay: Anticancer activity against human SU-DHL-6 cells assessed as reduction in cell viability incubated for 24 hrs by CellTiter-Glo luminescent assay; assay type: functional, cell-based; conditions: SU-DHL-6, 24 h
SU-DHL-2 = assay: Anticancer activity against human SUDHL2 cells assessed as reduction in cell viability incubated for 24 hrs by CellTiter-Glo luminescent assay; assay type: functional, cell-based; conditions: SU-DHL-2, 24 h
[4] = Anticancer activity against human BJeLR cells assessed as reduction in cell viability incubated for 24 hrs by CellTiter-Glo luminescent assay; assay type: functional, cell-based
SU-DHL10 = assay: Anticancer activity against human SU-DHL-10 cells assessed as reduction in cell viability incubated for 24 hrs by CellTiter-Glo luminescent assay; assay type: functional, cell-based; conditions: SU-DHL10, 24 h
DOHH-2 = assay: Anticancer activity against human DOHH-2 cells assessed as reduction in cell viability incubated for 24 hrs by CellTiter-Glo luminescent assay; assay type: functional, cell-based; conditions: DOHH-2, 24 h
SU-DHL-16 = assay: Anticancer activity against human SU-DHL-16 cells assessed as reduction in cell viability incubated for 24 hrs by CellTiter-Glo luminescent assay; assay type: functional, cell-based; conditions: SU-DHL-16, 24 h
SK-MEL-28 = assay: Antiproliferative activity against human SK-MEL-28 cells harboring BRAF V600E mutant assessed as cell viability incubated for 72 hrs by crystal violet staining based assay; assay type: functional; conditions: SK-MEL-28, 72 h
G-361 = assay: Antiproliferative activity against human G-361 cells harboring BRAF V600E mutant assessed as cell viability incubated for 72 hrs by crystal violet staining based assay; assay type: functional; conditions: G-361, 72 h
[5] = Anticancer activity against human PHMLER expressing CD24low phenotype cells assessed as reduction in cell viability incubated for 72 hrs; assay type: functional, cell-based
MDA-MB-231 = assay: Antiproliferative activity against human MDA-MB-231 cells assessed as inhibition of cell viability incubated for 72 hrs by MTT assay; assay type: functional, cell-based; conditions: MDA-MB-231, 72 h
HT-1080 = assay: Induction of ferroptosis in human HT-1080 cells assessed as inhibition of (cystine-glutamate antiporter) system Xc- mediated cystine transport; assay type: functional, cell-based
LN-229 = assay: Induction of ferroptosis in human LN-229 cells assessed as GPX4 degradation; assay type: functional, cell-based
U-118-MG = assay: Induction of ferroptosis in human U-118-MG cells assessed as GPX4 degradation; assay type: functional, cell-based
ES-2 = assay: Anticancer activity against human ES2 cells assessed as reduction in cell viability incubated for 72 hrs by Alamar Blue viability assay; assay type: functional, cell-based; conditions: ES-2, 72 h
NCI-N87 = assay: Anticancer activity against human NCI-N87 cells assessed as inhibition of cell viability incubated for 24 hrs by CCK-8 assay; assay type: functional, cell-based; conditions: NCI-N87, 24 h
AGS = assay: Anticancer activity against human AGS cells assessed as inhibition of cell viability incubated for 24 hrs by CCK-8 assay; assay type: functional, cell-based

SMILES: O=S(=O)(c1ccc2c(c1)C(=NO)c1cc(S(=O)(=O)N3CCCCC3)ccc1-2)N1CCCCC1
IC50 [1]: > 1000 nM

SMILES: C#CCN[C@@H]1C=C[C@]2(O[C@H]([C@@H](CC)C(=O)[C@@H](C)[C@@H](O)[C@H](C)[C@@H]3O[C@@H]([C@@H](CC)C(=O)O)CC[C@@H]3C)[C@@H](C)C[C@H]2C)O[C@@]12CC[C@@](C)([C@H]1CC[C@](O)(CC)[C@H](C)O1)O2
IC50 [5]: 100 nM

SMILES: COC(=O)c1ccc([C@H]2c3[nH]c4ccccc4c3C[C@H](C(=O)OC)N2C(=O)CCl)cc1
IC50 (HT-1080): 100 nM | IC50 [2]: 100 nM

SMILES: C#Cc1nc(C2=C(C)[C@H](O)CC2)cs1
IC50 (HT-1080): 76000 nM

SMILES: O=S(=O)(NC1CCCCC1)c1ccc2c(c1)C(=NO)c1cc(S(=O)(=O)NC3CCCCC3)ccc1-2
IC50 (LN-229): 4200 nM | IC50 (U-118-MG): 2600 nM

SMILES: CC1CC[C@@]23C[C@H](O)C(=O)[C@@]2(O)[C@]1(C)[C@H](OC(=O)CCl)C[C@@H](C1=CCn2c(=O)n(-c4ccccc4)c(=O)n2C1)[C@@H]3C (stereo not given in full)
IC50 (ES-2): 1600 nM

SMILES: C[C@@H]1CC[C@@]2(OC1)O[C@H]1C[C@H]3[C@@H]4CC=C5C[C@@H](O)C[C@@H](O[C@H]6O[C@H](C)[C@H](O)[C@H](O)[C@H]6O[C@@H]6O[C@@H](C)[C@H](O)[C@@H](O)[C@H]6O)[C@]5(C)[C@H]4CC[C@]3(C)[C@H]1[C@@H]2C
IC50 (NCI-N87): 21300 nM | IC50 (AGS): 10300 nM

SMILES: CCCC[S@@](=N)(=O)CC[C@@H](N)C(=O)O
IC50 [2]: < 10000 nM

The next lines start with results.

IC50 (DLD-1): 50200 nM | IC50 (HCT-116): 44500 nM
SMILES: COc1ccc2oc(=N)c(C(N)=S)cc2c1

IC50 [2]: 900 nM
SMILES: CC(C)Oc1ccc(CN2CCNCC2)cc1-n1c(CN2CCN(C(=O)COc3ccc(Cl)cc3)CC2)nc2ccccc2c1=O

IC50 (SU-DHL-5): 1 nM | IC50 (SU-DHL-6): 1 nM | IC50 (SU-DHL-2): 21 nM | IC50 (SU-DHL10): 4 nM | IC50 (SU-DHL-16): 12 nM
SMILES: CC(C)Oc1ccc(C(=O)Cn2ccnc2)cc1-n1c(CN2CCN(C(=O)COc3ccc(Cl)cc3)CC2)nc2ccccc2c1=O
IC50 [3]: 1 nM | IC50 [4]: 3 nM | IC50 (DOHH-2): 14 nM

IC50 (SK-MEL-28): 2400 nM
SMILES: Cc1cc(-c2nc(-c3ccc(OC(F)(F)F)cc3)no2)nn1Cc1ccnc(N2CCN(C3CC3)CC2)c1
IC50 (G-361): 4800 nM

IC50 (MDA-MB-231): 340 nM
SMILES: C=C1C(=O)O[C@H]2[C@H]1CC/C(COC(=O)/C=C/c1c(OC)cccc1OC)=C\CC[C@@]1(C)O[C@@H]21
